Test results as given in patent publication US10071086B2, “1H-pyrazolo[3,4-b]pyridines and therapeutic uses thereof” (Samumed, LLC, priority 2012, dated 2018).

What follows are molecules tested on Wnt pathway (assay: Wnt activity reporter assay (SP5 promoter-luciferase in SW480 cells)). Conditions: Homo sapiens, SP5 promoter firefly luciferase reporter, read-out: Wnt inhibition.
Type: cell-based
Source text: The above synthesized compounds were screened using the assay procedure for Wnt activity described below.
Reporter cell lines can be generated by stably transducing cells of cancer cell lines (e.g., colon cancer) with a lentiviral construct that include a wnt-responsive promoter driving expression of the firefly luciferase gene.
Lentiviral constructs can be made in which the SP5 promoter, a promoter having eight TCF/LEF binding sites derived from the SP5 promoter, is linked upstream of the firefly luciferase gene. The lentiviral constructs can also include a hygromycin resistance gene as a selectable marker. The SP5 promoter construct can be used to transduce SW480 cells, a colon cancer cell line having a mutated APC gene that generates a truncated APC protein, leading to de-regulated accumulation of β-catenin.
Cultured SW480 cells bearing a reporter construct can be distributed at approximately 10,000 cells per well into 96 well or 384 well plates. Compounds from a small molecule compound library can then be added to the wells in half-log dilutions using a ten micromolar top concentration. A series of control wells for each cell type receive only buffer and compound solvent. Twenty-four to forty hours after the addition of compound, reporter activity for luciferase can be assayed, for example, by addition of the BrightGlo luminescence reagent (Promega) and the Victor3 plate reader (Perkin Elmer). Readings can be normalized to DMSO only treated cells, and normalized activities can then be used in the IC50 calculations.

SMILES | IC50 [nM]
CC(C)N1CCN(c2cc(F)cc(-c3cncc4[nH]c(-c5n[nH]c6ncc(-c7cccnc7)cc56)nc34)c2)CC1 [Compound 15, 3-(7-(3-Fluoro-5-(4-isopropylpiperazin-1-yl)phenyl)-3H-imidazo[4,5-c]pyridin-2-yl)-5-(pyridin-3-yl)-1H-pyrazolo[3,4-b]pyridine] | 326
CN1CCN(c2cccc3[nH]c(-c4n[nH]c5ncc(-c6cncc(NC(=O)C7CCC7)c6)cc45)nc23)CC1 [Compound 752, N-(5-(3-(4-(4-Methylpiperazin-1-yl)-1H-benzo[d]imidazol-2-yl)-1H-pyrazolo[3,4-b]pyridin-5-yl)pyridin-3-yl)cyclobutanecarboxamide] | 226
CCCC(=O)Nc1cncc(-c2cnc3[nH]nc(-c4nc5c(-c6ccoc6)cccc5[nH]4)c3c2)c1 [Compound 827, N-(5-(3-(4-(Furan-3-yl)-1H-benzo[d]imidazol-2-yl)-1H-pyrazolo[3,4-b]pyridin-5-yl)pyridin-3-yl)butyramide] | 63
c1ncc(-c2cnc3[nH]nc(-c4nc5c(N6CCCCC6)cncc5[nH]4)c3c2)cc1CN1CCCC1 [Compound 249, 3-(7-(Piperidin-1-yl)-3H-imidazo[4,5-c]pyridin-2-yl)-5-(5-(pyrrolidin-1-ylmethyl)pyridin-3-yl)-1H-pyrazolo[3,4-b]pyridine] | 10000
Fc1cc(CN2CCCC2)cc(-c2cncc3[nH]c(-c4n[nH]c5ncc(-c6cccnc6)cc45)nc23)c1 [Compound 16, 3-(7-(3-Fluoro-5-(pyrrolidin-1-ylmethyl)phenyl)-3H-imidazo[4,5-c]pyridin-2-yl)-5-(pyridin-3-yl)-1H-pyrazolo[3,4-b]pyridine] | 384
O=C(Cc1ccccc1)Nc1cncc(-c2cnc3[nH]nc(-c4nc5c(-c6ccc(F)cc6)cncc5[nH]4)c3c2)c1 [Compound 128, N-(5-(3-(7-(4-Fluorophenyl)-3H-imidazo[4,5-c]pyridin-2-yl)-1H-pyrazolo[3,4-b]pyridin-5-yl)pyridin-3-yl)-2-phenylacetamide] | 90
O=C(Nc1cncc(-c2cnc3[nH]nc(-c4nc5c(-c6cccc(F)c6)cccc5[nH]4)c3c2)c1)C1CCCCC1 [Compound 561, N-(5-(3-(4-(3-Fluorophenyl)-1H-benzo[d]imidazol-2-yl)-1H-pyrazolo[3,4-b]pyridin-5-yl)pyridin-3-yl)cyclohexanecarboxamide] | 143
O=C(Nc1cncc(-c2cnc3[nH]nc(-c4nc5c(N6CCCCC6)cccc5[nH]4)c3c2)c1)c1ccccc1 [Compound 691, N-(5-(3-(4-(Piperidin-1-yl)-1H-benzo[d]imidazol-2-yl)-1H-pyrazolo[3,4-b]pyridin-5-yl)pyridin-3-yl)benzamide] | 187
CN1CCN(c2cccc3[nH]c(-c4n[nH]c5ncc(-c6cncc(CN7CCC(F)(F)C7)c6)cc45)nc23)CC1 [Compound 758, 5-(5-((3,3-Difluoropyrrolidin-1-yl)methyl)pyridin-3-yl)-3-(4-(4-methylpiperazin-1-yl)-1H-benzo[d]imidazol-2-yl)-1H-pyrazolo[3,4-b]pyridine] | 48
CCNCc1cncc(-c2cnc3[nH]nc(-c4nc5c(-c6cccc(F)c6)cccc5[nH]4)c3c2)c1 [Compound 547, N-((5-(3-(4-(3-Fluorophenyl)-1H-benzo[d]imidazol-2-yl)-1H-pyrazolo[3,4-b]pyridin-5-yl)pyridin-3-yl)methyl)ethanamine] | 97
CN(C)c1cncc(-c2cnc3[nH]nc(-c4nc5c(-c6cccnc6)cccc5[nH]4)c3c2)c1 [Compound 616, N,N-Dimethyl-5-(3-(4-(pyridin-3-yl)-1H-benzo[d]imidazol-2-yl)-1H-pyrazolo[3,4-b]pyridin-5-yl)pyridin-3-amine] | 1410
CCNCc1cncc(-c2cnc3[nH]nc(-c4nc5c(N6CCCCC6)cncc5[nH]4)c3c2)c1 [Compound 241, N-((5-(3-(7-(Piperidin-1-yl)-3H-imidazo[4,5-c]pyridin-2-yl)-1H-pyrazolo[3,4-b]pyridin-5-yl)pyridin-3-yl)methyl)ethanamine] | 190
CCC(=O)Nc1cncc(-c2cnc3[nH]nc(-c4nc5c(-c6ccsc6)cccc5[nH]4)c3c2)c1 [Compound 785, N-(5-(3-(4-(Thiophen-3-yl)-1H-benzo[d]imidazol-2-yl)-1H-pyrazolo[3,4-b]pyridin-5-yl)pyridin-3-yl)propionamide] | 10
O=C(Nc1cncc(-c2cnc3[nH]nc(-c4nc5c(N6CCCCC6)cncc5[nH]4)c3c2)c1)C1CC1 [Compound 254, N-(5-(3-(7-(Piperidin-1-yl)-3H-imidazo[4,5-c]pyridin-2-yl)-1H-pyrazolo[3,4-b]pyridin-5-yl)pyridin-3-yl)cyclopropanecarboxamide] | 235
CN(C)Cc1cncc(-c2cnc3[nH]nc(-c4nc5c(-c6cccnc6)cncc5[nH]4)c3c2)c1 [Compound 176, N,N-Dimethyl-1-(5-(3-(7-(pyridin-3-yl)-3H-imidazo[4,5-c]pyridin-2-yl)-1H-pyrazolo[3,4-b]pyridin-5-yl)pyridin-3-yl)methanamine] | 1550
c1csc(-c2cccc3[nH]c(-c4n[nH]c5ncc(-c6cncc(CN7CCCC7)c6)cc45)nc23)c1 [Compound 898, 5-(5-(Pyrrolidin-1-ylmethyl)pyridin-3-yl)-3-(4-(thiophen-2-yl)-1H-benzo[d]imidazol-2-yl)-1H-pyrazolo[3,4-b]pyridine] | 120
CC(C)Nc1cncc(-c2cnc3[nH]nc(-c4nc5c(-c6cccc(F)c6)cccc5[nH]4)c3c2)c1 [Compound 551, 5-(3-(4-(3-Fluorophenyl)-1H-benzo[d]imidazol-2-yl)-1H-pyrazolo[3,4-b]pyridin-5-yl)-N-isopropylpyridin-3-amine] | 33
CN(C)c1cncc(-c2cnc3[nH]nc(-c4nc5ccccc5[nH]4)c3c2)c1 [Compound 765, 5-(3-(1H-Benzo[d]imidazol-2-yl)-1H-pyrazolo[3,4-b]pyridin-5-yl)-N,N-dimethylpyridin-3-amine] | 27
CC(C)Nc1cncc(-c2cnc3[nH]nc(-c4nc5c(-c6ccncc6)cncc5[nH]4)c3c2)c1 [Compound 198, N-Isopropyl-5-(3-(7-(pyridin-4-yl)-3H-imidazo[4,5-c]pyridin-2-yl)-1H-pyrazolo[3,4-b]pyridin-5-yl)pyridin-3-amine] | 1130
c1cncc(-c2cnc3[nH]nc(-c4nc5c(-c6cccs6)cncc5[nH]4)c3c2)c1 [Compound 443, 5-(Pyridin-3-yl)-3-(7-(thiophen-2-yl)-3H-imidazo[4,5-c]pyridin-2-yl)-1H-pyrazolo[3,4-b]pyridine] | 1
O=C(Nc1cncc(-c2cnc3[nH]nc(-c4nc5c(-c6cccc(F)c6)cncc5[nH]4)c3c2)c1)C1CC1 [Compound 114, N-(5-(3-(7-(3-Fluorophenyl)-3H-imidazo[4,5-c]pyridin-2-yl)-1H-pyrazolo[3,4-b]pyridin-5-yl)pyridin-3-yl)cyclopropanecarboxamide] | 11
CCCCC(=O)Nc1cncc(-c2cnc3[nH]nc(-c4nc5c(N6CCCCC6)cccc5[nH]4)c3c2)c1 [Compound 698, N-(5-(3-(4-(Piperidin-1-yl)-1H-benzo[d]imidazol-2-yl)-1H-pyrazolo[3,4-b]pyridin-5-yl)pyridin-3-yl)pentanamide] | 300
Fc1cc(-c2cncc3[nH]c(-c4n[nH]c5ncc(-c6cccnc6)cc45)nc23)cc(N2CCNCC2)c1 [Compound 21, 3-(7-(3-Fluoro-5-(piperazin-1-yl)phenyl)-3H-imidazo[4,5-c]pyridin-2-yl)-5-(pyridin-3-yl)-1H-pyrazolo[3,4-b]pyridine] | 167
O=C(Nc1cncc(-c2cnc3[nH]nc(-c4nc5c(-c6ccoc6)cncc5[nH]4)c3c2)c1)c1ccccc1 [Compound 376, N-(5-(3-(7-(Furan-3-yl)-3H-imidazo[4,5-c]pyridin-2-yl)-1H-pyrazolo[3,4-b]pyridin-5-yl)pyridin-3-yl)benzamide] | 51
Fc1cncc(-c2cncc3[nH]c(-c4n[nH]c5ncc(-c6cccnc6)cc45)nc23)c1 [Compound 23, 3-(7-(5-Fluoropyridin-3-yl)-3H-imidazo[4,5-c]pyridin-2-yl)-5-(pyridin-3-yl)-1H-pyrazolo[3,4-b]pyridine] | 10000
Cc1cn(-c2cccc3[nH]c(-c4n[nH]c5ncc(-c6cncc(NC(=O)C7CCCCC7)c6)cc45)nc23)cn1 [Compound 728, N-(5-(3-(4-(4-Methyl-1H-imidazol-1-yl)-1H-benzo[d]imidazol-2-yl)-1H-pyrazolo[3,4-b]pyridin-5-yl)pyridin-3-yl)cyclohexanecarboxamide] | 39
c1ccc(CNCc2cncc(-c3cnc4[nH]nc(-c5nc6ccncc6[nH]5)c4c3)c2)cc1 [Compound 336, 1-(5-(3-(3H-Imidazo[4,5-c]pyridin-2-yl)-1H-pyrazolo[3,4-b]pyridin-5-yl)pyridin-3-yl)-N-benzylmethanamine] | 790
O=C(Cc1ccccc1)Nc1cncc(-c2cnc3[nH]nc(-c4nc5c(-c6ccccc6F)cccc5[nH]4)c3c2)c1 [Compound 595, N-(5-(3-(4-(2-Fluorophenyl)-1H-benzo[d]imidazol-2-yl)-1H-pyrazolo[3,4-b]pyridin-5-yl)pyridin-3-yl)-2-phenylacetamide] | 354
O=C(Nc1cncc(-c2cnc3[nH]nc(-c4nc5c(-c6cccc(F)c6)cncc5[nH]4)c3c2)c1)C(F)(F)F [Compound 1, 2,2,2-Trifluoro-N-(5-(3-(7-(3-fluorophenyl)-3H-imidazo[4,5-c]pyridin-2-yl)-1H-pyrazolo[3,4-b]pyridin-5-yl)pyridin-3-yl)acetamide] | 6
